Results from US20260297042A1, “BIARYLAMIDE DERIVATIVES AND THEIR USE AS PKMYT1 INHIBITORS” (CANCER RESEARCH TECHNOLOGY LIMITED, priority 2023, published 2026).

Tests used:
OVCAR 3 cells = assay: Cancer cell line proliferation assay, ATP-based cell viability (Cell Titre Glow), OVCAR 3 (CCNE1-amplified); details: KYSE30 (normal CCNE1) GI50 vs. OVCAR 3 (CCNE1-amplified) GI50
Outline: (§1)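 GI50 reflects half-maximal growth inhibition by PKMYT1 inhibitors, derived by curve fitting of CellTiter-Glo luminescence signals.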

[1] = target: T1, Cellular PKMYT1 Biomarker CDK1 pT14 (Homo sapiens, UniProt Q99640); assay: Inhibition of cellular PKMYT1 biomarker CDK1 pT14 in OVCAR 3 cells (immunoblot); type: cell-based; details: 20 hours incubation
T1 construct: read-out CDK1 phospho-T14 immunoblot
T1 sequence (Q99640 1-499): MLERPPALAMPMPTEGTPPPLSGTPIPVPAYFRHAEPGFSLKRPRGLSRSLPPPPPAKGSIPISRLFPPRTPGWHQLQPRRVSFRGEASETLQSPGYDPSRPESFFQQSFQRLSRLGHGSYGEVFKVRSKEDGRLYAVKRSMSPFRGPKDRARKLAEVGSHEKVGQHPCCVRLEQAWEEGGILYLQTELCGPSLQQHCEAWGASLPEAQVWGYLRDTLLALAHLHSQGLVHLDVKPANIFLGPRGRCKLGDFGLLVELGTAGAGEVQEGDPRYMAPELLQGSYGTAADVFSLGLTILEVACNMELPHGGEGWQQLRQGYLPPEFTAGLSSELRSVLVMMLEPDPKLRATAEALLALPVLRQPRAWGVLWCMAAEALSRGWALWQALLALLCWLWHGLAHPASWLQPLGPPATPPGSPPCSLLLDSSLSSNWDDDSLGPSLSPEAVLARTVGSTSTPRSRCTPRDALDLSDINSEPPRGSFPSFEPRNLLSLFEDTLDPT
Outline: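 Confluent OVCAR 3 cells treated with a compound concentration range for 20 h at 37 °C. Lysates analysed by automated capillary immunoblot for CDK1 phospho-T14, with vinculin, fluorescence detection; IC50 by regression.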

WEE1 = target: T2, WEE1 (Homo sapiens, UniProt P30291); assay: Selectivity versus WEE1 assay (ADP-Glo enzymatic assay); type: biochemical; details: for IC50: WEE1 15 nM, ADP-Glo, banded values; for PKMYT1 vs. WEE1 selectivity: fold difference in selectivity for PKMYT1 over WEE1, banded
T2 construct: purchased Thermo Fisher PR7373A
Outline: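 Inhibition is measured as reduced ADP production, detected by luminescence with ADP-Glo, after enzyme (15 nM) and 30 µM ATP react for 60 min at 26° C in 1% DMSO-containing HEPES buffer, pH 7.5. Data are accepted only if replicate IC50s fall within 3-fold and r2 exceeds 0.9.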

KYSE-30 cells = assay: Cancer cell line proliferation assay, ATP-based cell viability (Cell Titre Glow), KYSE-30 (normal CCNE1); details: Homo sapiens, KYSE-30 cells (normal CCNE1), concentration that achieves 50% cell growth proliferation inhibition, read-out: KYSE30 Gl50
Outline: as §1

Human PKMYT1 = target: T3, Human PKMYT1 (Homo sapiens, UniProt Q99640); assay: PKMYT1 biochemical ADP-Glo enzymatic assay; details: PKMYT1 kinase domain 15 nM; ADP-Glo; banded values
T3 construct: Human PKMYT1 75-362 was cloned as a TEV cleavable 6xHis fusion; 6xHis (TEV cleavable) (cleaved yes); made in house; host or cells: bacterial cells
T3 sequence (Q99640 75-362): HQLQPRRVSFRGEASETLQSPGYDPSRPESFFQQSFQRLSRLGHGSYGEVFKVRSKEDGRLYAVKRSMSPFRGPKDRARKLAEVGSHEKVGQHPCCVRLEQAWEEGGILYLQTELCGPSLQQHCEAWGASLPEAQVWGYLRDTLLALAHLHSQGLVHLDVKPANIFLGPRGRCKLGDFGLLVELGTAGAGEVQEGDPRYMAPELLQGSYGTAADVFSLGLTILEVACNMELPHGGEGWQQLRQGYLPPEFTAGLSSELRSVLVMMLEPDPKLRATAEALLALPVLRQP
Outline: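 IC50 derived from luminescence (ADP-Glo Max) after PKMYT1 kinase domain, 15 nM, turned over 500 µM ATP for 60 min at 26 °C. Buffer contained 10 mM MgCl2, 1 mM EGTA and 0.01% Brij-35 at pH 7.5.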

T2 sequence (P30291 whole entry): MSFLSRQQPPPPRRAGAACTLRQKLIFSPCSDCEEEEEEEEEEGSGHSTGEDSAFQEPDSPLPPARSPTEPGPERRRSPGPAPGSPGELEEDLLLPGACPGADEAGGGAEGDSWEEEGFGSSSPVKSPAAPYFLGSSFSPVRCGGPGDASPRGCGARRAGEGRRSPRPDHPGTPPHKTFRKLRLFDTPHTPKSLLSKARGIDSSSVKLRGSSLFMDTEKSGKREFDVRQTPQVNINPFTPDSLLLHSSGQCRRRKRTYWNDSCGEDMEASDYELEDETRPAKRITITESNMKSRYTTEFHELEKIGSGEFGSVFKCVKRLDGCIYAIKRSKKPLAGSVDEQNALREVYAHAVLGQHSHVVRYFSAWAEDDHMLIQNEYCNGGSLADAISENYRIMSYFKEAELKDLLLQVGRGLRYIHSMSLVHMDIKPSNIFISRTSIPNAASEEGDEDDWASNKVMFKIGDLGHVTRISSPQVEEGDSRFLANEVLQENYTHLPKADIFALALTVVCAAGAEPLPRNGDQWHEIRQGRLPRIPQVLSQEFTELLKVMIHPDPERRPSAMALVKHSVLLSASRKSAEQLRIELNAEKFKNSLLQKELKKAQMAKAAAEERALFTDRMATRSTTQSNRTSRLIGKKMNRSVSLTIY

| Structure (SMILES) | IC50 [1] [nM] | IC50 (WEE1) [nM] | PKMYT1 vs. WEE1 selectivity (WEE1) | IC50 (Human PKMYT1) [nM] | Selectivity ratio KYSE30 Gl50 vs. OVCAR3 Gl50 (OVCAR 3 cells) | GI50 (KYSE-30 cells) [nM] |
| --- | --- | --- | --- | --- | --- | --- |
| Cc1ccnc(Nc2ncc(C(=O)Nc3c(C)ccc(O)c3C)s2)c1 [BAA-422, N-(3-hydroxy-2,6-dimethylphenyl)-2-((4-methylpyridin-2-yl)amino)thiazole-5-carboxamide] | < 100 | 1000 to 11000 | X (100-<1000 fold) | < 50 | Y (>20 fold) | 500 to 5000 |
| Cc1ccc(O)c(C)c1NC(=O)c1cnc(Nc2cccc(N3CCN(C)CC3)n2)s1 [BAA-423, N-(3-hydroxy-2,6-dimethylphenyl)-2-((6-(4-methylpiperazin-1-yl)pyridin-2-yl)amino)thiazole-5-carboxamide] | < 100 | 1000 to 11000 | W (10-<100 fold) | < 50 | Y (>20 fold) | 500 to 5000 |
| COc1ccc(F)c(Nc2ncc(C(=O)Nc3c(C)ccc(O)c3C)s2)n1 [BAA-425, 2-((3-fluoro-6-methoxypyridin-2-yl)amino)-N-(3-hydroxy-2,6-dimethylphenyl)thiazole-5-carboxamide] | < 100 | > 11000 | Y (1000-5000 fold) | < 50 | Y (>20 fold) | 500 to 5000 |
| Cc1ccc(O)c(C)c1NC(=O)c1cnc(Nc2cccc(N3CCN(CCO)CC3)n2)s1 [BAA-432, N-(3-hydroxy-2,6-dimethylphenyl)-2-((6-(4-(2-hydroxyethyl)piperazin-1-yl)pyridin-2-yl)amino)thiazole-5-carboxamide] | < 100 | 1000 to 11000 | X (100-<1000 fold) | < 50 | Y (>20 fold) | > 5000 |
| Cc1ccc(O)c(C)c1NC(=O)c1cnc(Nc2ncnc3[nH]ccc23)s1 [BAA-441, 2-((7H-pyrrolo[2,3-d]pyrimidin-4-yl)amino)-N-(3-hydroxy-2,6-dimethylphenyl)thiazole-5-carboxamide] | < 100 | 1000 to 11000 | W (10-<100 fold) | < 50 | Y (>20 fold) | > 5000 |
| Cc1ccc2c(Nc3ncc(C(=O)Nc4c(C)ccc(O)c4C)s3)nn(C)c2c1 [BAA-451, 2-((1,6-dimethyl-1H-indazol-3-yl)amino)-N-(3-hydroxy-2,6-dimethylphenyl)thiazole-5-carboxamide] | < 100 | 1000 to 11000 | X (100-<1000 fold) | < 50 | Y (>20 fold) | > 5000 |
| Cc1ccc(O)c(C)c1NC(=O)c1cnc(Nc2nn(C)c3ccc(F)cc23)s1 [BAA-453, 2-((5-fluoro-1-methyl-1H-indazol-3-yl)amino)-N-(3-hydroxy-2,6-dimethylphenyl)thiazole-5-carboxamide] | < 100 | > 11000 | X (100-<1000 fold) | 50 to 1000 | Y (>20 fold) | > 5000 |

Continued, in another order:

| IC50 [1] [nM] | IC50 (WEE1) [nM] | PKMYT1 vs. WEE1 selectivity (WEE1) | IC50 (Human PKMYT1) [nM] | Structure (SMILES) | Selectivity ratio KYSE30 Gl50 vs. OVCAR3 Gl50 (OVCAR 3 cells) | GI50 (KYSE-30 cells) [nM] |
| --- | --- | --- | --- | --- | --- | --- |
| < 100 | > 11000 | Y (1000-5000 fold) | < 50 | Cc1ccnc(Nc2ncc(C(=O)Nc3c(C)ccc(O)c3C)s2)c1F [BAA-424, 2-((3-fluoro-4-methylpyridin-2-yl)amino)-N-(3-hydroxy-2,6-dimethylphenyl)thiazole-5-carboxamide] | Y (>20 fold) | > 5000 |
| < 100 | > 11000 | Z (>5000 fold) | < 50 | CCN(C(=O)Cc1cccc(Nc2ncc(C(=O)Nc3c(C)ccc(O)c3C)s2)n1)C1CC1 [BAA-426, 2-((6-(2-(Cyclopropyl(ethyl)amino)-2-oxoethyl)pyridin-2-yl)amino)-N-(3-hydroxy-2,6-dimethylphenyl)thiazole-5-carboxamide] | Y (>20 fold) | 500 to 5000 |
| < 100 | > 11000 | Z (>5000 fold) | < 50 | Cc1ccc(O)c(C)c1NC(=O)c1cnc(Nc2cccc(CC(=O)N(C3CC3)C3CC3)n2)s1 [BAA-427, 2-((6-(2-(Dicyclopropylamino)-2-oxoethyl)pyridin-2-yl)amino)-N-(3-hydroxy-2,6-dimethylphenyl)thiazole-5-carboxamide] | Y (>20 fold) | > 5000 |
| < 100 | > 11000 | Y (1000-5000 fold) | < 50 | CCOc1ccc(Nc2ncc(C(=O)Nc3c(C)ccc(O)c3C)s2)nc1C [BAA-430, 2-((5-ethoxy-6-methylpyridin-2-yl)amino)-N-(3-hydroxy-2,6-dimethylphenyl)thiazole-5-carboxamide] | Y (>20 fold) | > 5000 |
| < 100 | > 11000 | Y (1000-5000 fold) | 50 to 1000 | CCn1nc(Nc2ncc(C(=O)Nc3c(C)ccc(O)c3C)s2)c2cc(C(F)(F)F)ccc21 [BAA-456, 2-((1-ethyl-5-(trifluoromethyl)-1H-indazol-3-yl)amino)-N-(3-hydroxy-2,6-dimethylphenyl)thiazole-5-carboxamide] | X (3-20 fold) | 500 to 5000 |
| < 100 | 1000 to 11000 | X (100-<1000 fold) | < 50 | CCn1nc(Nc2ncc(C(=O)Nc3c(C)ccc(O)c3C)s2)c2ccccc21 [BAA-458, 2-((1-ethyl-1H-indazol-3-yl)amino)-N-(3-hydroxy-2,6-dimethylphenyl)thiazole-5-carboxamide] | Y (>20 fold) | 500 to 5000 |
| < 100 | > 11000 | X (100-<1000 fold) | 50 to 1000 | CCn1nc(Nc2ncc(C(=O)Nc3c(C)ccc(O)c3C)s2)c2cc(F)ccc21 [BAA-459, 2-((1-ethyl-5-fluoro-1H-indazol-3-yl)amino)-N-(3-hydroxy-2,6-dimethylphenyl)thiazole-5-carboxamide] | Y (>20 fold) | > 5000 |
| < 100 | 1000 to 11000 | X (100-<1000 fold) | < 50 | Cc1cn(CCF)nc1Nc1ncc(C(=O)Nc2c(C)ccc(O)c2C)s1 [BAA-470, 2-((1-(2-fluoroethyl)-4-methyl-1H-pyrazol-3-yl)amino)-N-(3-hydroxy-2,6-dimethylphenyl)thiazole-5-carboxamide] | Y (>20 fold) | > 5000 |
| < 100 | 1000 to 11000 | X (100-<1000 fold) | < 50 | Cc1cn(CC(F)F)nc1Nc1ncc(C(=O)Nc2c(C)ccc(O)c2C)s1 [BAA-478, 2-((1-(2,2-difluoroethyl)-4-methyl-1H-pyrazol-3-yl)amino)-N-(3-hydroxy-2,6-dimethylphenyl)thiazole-5-carboxamide] | Y (>20 fold) | > 5000 |
